What was measured:
Plutella xylostella = assay: Insecticidal test against Plutella xylostella; details: in Brassica rapa, 144 h, read-out: corrected mortality (%), assessment
Description: Six days after the immersion in the drug solution, the number of surviving insects was examined.

Laodelphax striatellus = assay: Insecticidal test against Laodelphax striatellus; details: in Oryza sativa, 192 h, read-out: corrected mortality (%), assessment
Dirofilaria immitis = assay: Effect test on Dirofilaria immitis (larval motility inhibition); details: 168 h, read-out: motility inhibition rate
[1] = system: Frankliniella occidentalis; assay: Insecticidal test against Frankliniella occidentalis; details: in Phaseolus vulgaris, 96 h, read-out: corrected mortality (%), assessment
Description: Female adults of Frankliniella occidentalis were inoculated onto Phaseolus vulgaris leaf pieces, and after allowing them to lay eggs for one day, the female adults were removed. […] Four days after the treatment, the number of surviving larvae of this species larvae was examined.

SMILES | mortality at 500 µg/mL (Plutella xylostella) | mortality at 500 ppm (Laodelphax striatellus) | inhibition at 100 µM (Dirofilaria immitis) | mortality at 500 µg/mL [1]
CNC(Nc1ccc(F)nc1)=C1C(=O)CC(c2ccc(C(F)(F)F)cc2)NC1=O (centres unmarked) [3-11] | 100% | 100% | ≥ 50% | 
CNC(Nc1ccc(F)nc1)=C1C(=O)CC(c2nc(-c3ccc(F)cc3)cs2)NC1=O (centres unmarked) [3-23] | 100% | 100% | ≥ 50% | 
CCOC(=O)N1C(=O)C(=C(NC)Nc2cccc(F)c2)C(=O)CN1c1ccc(C#N)c(Cl)c1 [6-30] |  |  | ≥ 50% | 100%
CC1(C)C(=O)C(=C(Nc2ccc(F)cn2)Nc2ccc(F)cn2)C(=O)CC1c1ccc(Br)cn1 (centres unmarked) [1-45] | 100% |  | ≥ 50% | 
O=C1CC(c2nc(-c3ccc(F)cc3)cs2)NC(=O)C1=C(Nc1ccc(F)cc1)Nc1ccc(F)nc1 (centres unmarked) [3-24] | 100% |  | ≥ 50% | 
CC1(C)C(=O)C(=C(Nc2ccc(F)cc2)Nc2ccc(F)cc2)C(=O)CC1c1ccc(Br)cn1 (centres unmarked) [1-44] | 100% |  | ≥ 50% | 
Cn1nc(C2CC(=O)C(=C(Nc3ccc(F)cc3)Nc3ccc(F)nc3)C(=O)N2)cc1OC(F)F (centres unmarked) [3-22] | 100% | 100% | ≥ 50% | 
C=CCNC(Nc1ccc(F)cc1)=C1C(=O)CC(c2cnc(C)o2)CC1=O (centres unmarked) [1-115] | 100% |  | ≥ 50% | 
O=C1CC(c2ccc(C(F)(F)F)cc2)CC(=O)C1=C(Nc1ccc(F)nc1)Nc1cccnn1 (centres unmarked) [1-116] | 100% |  | ≥ 50% | 
CSC(Nc1ccc(F)nc1)=C1C(=O)CC(c2ccc(C(F)(F)F)cc2)CC1=O (centres unmarked) [compound No. 9-1] | 100% |  | ≥ 50% | 
CNC(Nc1ccc(F)cc1)=C1C(=O)CC(c2ccc(Br)cn2)CC1=O (centres unmarked) [1-10] | 100% |  | ≥ 50% | 
O=C1CC(c2ccc(C(F)(F)F)cc2)CC(=O)C1=C(Nc1ccc(F)cn1)Nc1ccc(F)cn1 (centres unmarked) [1-1] | 100% |  | ≥ 50% | 
CC(C)(C)OC(=O)C1CC(=O)C(=C(Nc2ccc(F)cc2)Nc2ccc(F)nc2)C(=O)N1 (centres unmarked) [3-39] | 100% |  | ≥ 50% | 
O=C1CC(c2ccc(C(F)(F)F)cc2)CC(=O)C1=C(NCC(F)(F)F)Nc1ccc(F)cc1 (centres unmarked) [1-23] | 100% |  | ≥ 50% | 
CCCNC(Nc1ccc(F)cc1)=C1C(=O)CN(c2ccc(C#N)cn2)CC1=O [4-3] | 100% |  | ≥ 50% | 
O=C1CC(c2ccc(C(F)(F)F)cc2)CC(=O)C1=C(NCC(F)(F)F)NCC(F)(F)F (centres unmarked) [1-28] | 100% |  | ≥ 50% | 
CNC(Nc1ccc(F)cc1)=C1C(=O)CN(c2ccc(C#N)cn2)CC1=O [compound No. 4-1] | 100% |  | ≥ 50% | 
COc1ncccc1NC(Nc1cccnc1OC)=C1C(=O)CC(c2ccc(C(F)(F)F)cc2)CC1=O (centres unmarked) [1-118] |  |  | ≥ 50% | 
CCC1(c2ccc(C(F)(F)F)nc2)CN(C)C(=O)C(=C(NC)Nc2ccc(F)cc2)C1=O (centres unmarked) [compound No. 3-2] |  |  | ≥ 50% | 
COCCOC(=O)N1C(=O)C(=C(Nc2ccc(OC)cc2)Nc2ccc(OC)cc2)C(=O)CN1c1ccc(C#N)nc1 [6-7] |  | 100% | ≥ 50% | 
CC(C)(C)OC(=O)N1CC(=O)C(=C(Nc2ccc(F)cn2)Nc2ccc(F)cn2)C(=O)C1 [compound No. 4-10, tertiary butyl 4-(bis((5-fluoropyridin-2-yl)amino)methylene)-3,5-dioxopiperidine-1-carboxylate] |  | 100% |  | 
CNC(Nc1ccc(F)cc1)=C1C(=O)CCCN(c2ccc(C(F)(F)F)cc2)C1=O [5-2] |  |  | ≥ 50% | 
CSC(Nc1ccc(F)nc1)=C1C(=O)CC(c2ccc(Br)s2)NC1=O (centres unmarked) [9-33] |  |  | ≥ 50% | 
CNC(Nc1ccc(F)c(F)c1)=C1C(=O)CN(c2ccc(Br)nc2)N(C(=O)OC)C1=O [6-22] |  | 100% | ≥ 50% | 
O=C1CC(c2ccc(Cl)s2)CC(=O)C1=C(Nc1ccc(F)nc1)Nc1ccc(F)nc1 (centres unmarked) [1-49] |  |  | ≥ 50% | 
CC1(C)C(=O)C(=C(Nc2ccnc(F)c2)Nc2ccnc(F)c2)C(=O)CC1c1ccc(Br)cn1 (centres unmarked) [1-47] |  |  | ≥ 50% | 
COC(=O)N1C(=O)C(=C(NCC(F)F)Nc2ccc(F)cc2)C(=O)CN1c1ccc(C#N)nc1 [compound No. 6-15, methyl 2-(6-cyanopyridin-3-yl)-5-(((2,2-difluoroethyl)amino) ((4-fluorophenyl)amino)methylene)-4,6-dioxotetrahydropyridazine-1(2H)-carboxylate] |  | 100% | ≥ 50% | 

SMILES | mortality at 500 µg/mL (Plutella xylostella) | mortality at 500 ppm (Laodelphax striatellus) | inhibition at 100 µM (Dirofilaria immitis) | mortality at 500 µg/mL [1]
O=C1CC(c2ccc(C(F)(F)F)nc2)CC(=O)C1=C(Nc1ccc(F)nc1)Nc1ccc(F)nc1 (centres unmarked) [1-8] |  |  | ≥ 50% | 
CC(C)(C)c1ccc(CSC(Nc2ccc(F)nc2)=C2C(=O)CC(c3cnc(Cl)c(Br)c3)NC2=O)cc1 (centres unmarked) [9-32] | 100% | 100% | ≥ 50% | 
O=C1CC(c2ccc(C(F)(F)F)cc2)CC(=O)C1=C(Nc1ccc(F)cc1)Nc1ccc(F)cc1 (centres unmarked) [compound No. 1-9, 2-(bis((4-fluorophenyl)amino)methylene)-5-(4-(trifluoromethyl)phenyl)cyclohexane-1,3-dione] |  |  | ≥ 50% | 
CNC(Nc1ccc(F)cc1)=C1C(=O)CC(c2c(-c3ccccc3)nn(C)c2Cl)CC1=O (centres unmarked) [1-82] |  |  | ≥ 50% | 
O=C1CC(c2ccc(C(F)(F)F)cc2)CC(=O)C1=C(Nc1ccnc(F)c1)Nc1ccnc(F)c1 (centres unmarked) [1-4] |  |  | ≥ 50% | 
CCC1(c2ccc(C(F)(F)F)cc2)CN(C)C(=O)C(=C(Nc2ccc(F)cc2)Nc2ccc(F)nc2)C1=O (centres unmarked) [3-9] |  |  | ≥ 50% | 
O=C1CC(c2ccc(C(F)(F)F)nc2)OC(=O)C1=C(Nc1ccnc(F)c1)Nc1ccnc(F)c1 (centres unmarked) [2-1] |  |  | ≥ 50% | 
CNC(Nc1ccc(F)nc1)=C1C(=O)CC(c2cc(OC(F)F)n(C)n2)NC1=O (centres unmarked) [3-20] |  |  | ≥ 50% | 
Cn1nc(-c2ccccc2)c(C2CC(=O)C(=C(Nc3ccc(F)cc3)Nc3ccc(F)nc3)C(=O)C2)c1Cl (centres unmarked) [1-79] |  |  | ≥ 50% | 
O=C1CC(c2ccc(C(F)(F)F)cc2)CC(=O)C1=C(Nc1ccc(F)nc1)Nc1ccc(F)nc1 (centres unmarked) [1-3] |  |  | ≥ 50% | 
CCC1(c2ccc(C(F)(F)F)nc2)CN(C)C(=O)C(=C(Nc2ccc(F)nc2)SC)C1=O (centres unmarked) [9-37] |  |  | ≥ 50% | 
O=C1CC(c2ccc(C(F)(F)F)cc2)CC(=O)C1=C(Nc1ccc(F)cc1)NC1CCOc2ccccc21 (centres unmarked) [1-69] |  |  | ≥ 50% | 
O=C1CC(c2ccc(C(F)(F)F)cc2)CC(=O)C1=C(NCc1ccc(F)cc1)Nc1ccc(F)cc1 (centres unmarked) [1-34] |  |  | ≥ 50% | 
CNC(Nc1ccc(F)cc1)=C1C(=O)CC(c2ccc(C(F)(F)F)cc2)N(C)C1=O (centres unmarked) [compound No. 3-1, 3-(((4-fluorophenyl)amino) (methylamino)methylene)-1-methyl-6-(4-(trifluoromethyl)phenyl)piperidine-2,4-dione] |  |  | ≥ 50% | 
O=C1CC(c2nc(-c3ccc(F)cc3)cs2)NC(=O)C1=C(Nc1ccc(F)nc1)Nc1ccc(F)nc1 (centres unmarked) [3-25] | 100% |  | ≥ 50% | 
CNC(Nc1ccn(C)n1)=C1C(=O)CC(c2ccc(C(F)(F)F)cc2)CC1=O (centres unmarked) [1-117] |  |  | ≥ 50% | 
NC(Nc1ccc(F)cc1)=C1C(=O)CCCN(c2ccc(C(F)(F)F)cc2)C1=O [compound No. 5-1, 3-(amino((4-fluorophenyl)amino)methylene)-1-(4-(trifluoromethyl)phenyl)azepane-2,4-dione] |  | 100% |  | 
CNC(NC)=C1C(=O)CC(c2ccco2)CC1=O (centres unmarked) [1-11] |  |  | ≥ 50% | 
Cn1nc(-c2ccccc2)c(C2CC(=O)C(=C(Nc3ccc(F)cc3)Nc3ccc(F)cc3)C(=O)C2)c1Cl (centres unmarked) [1-80] |  |  | ≥ 50% | 
O=C1CC(c2cnc(Cl)c(Br)c2)NC(=O)C1=C(Nc1ccc(F)cc1)Nc1ccc(F)nc1 (centres unmarked) [3-43] |  |  | ≥ 50% | 
CC(C)(C)ONC(Nc1ccc(F)cc1)=C1C(=O)CC(c2ccc(C(F)(F)F)cc2)CC1=O (centres unmarked) [1-38] | 100% |  | ≥ 50% | 
O=C1CC(c2ccc(C(F)(F)F)cc2)CC(=O)C1=C(NCCBr)Nc1ccc(F)cc1 (centres unmarked) [1-27] |  |  | ≥ 50% | 
CCOC(=O)N1C(=O)C(=C(NCc2cccc(F)c2)Nc2cccc(F)c2)C(=O)CN1c1ccc(C#N)c(Cl)c1 [6-31] |  |  | ≥ 50% | 
NC(Nc1ccc(F)cc1)=C1C(=O)CC(c2cnc(Cl)c(Br)c2)NC1=O (centres unmarked) [3-42] | 100% | 100% | ≥ 50% | 
CNC(Nc1ccc(F)nc1)=C1C(=O)CC(c2ccc(C(F)(F)F)cc2)CC1=O (centres unmarked) [1-56] |  |  | ≥ 50% | 
O=C1CC(c2ccc(C(F)(F)F)nc2)OC(=O)C1=C(Nc1ccc(F)cn1)Nc1ccc(F)cn1 (centres unmarked) [2-2] |  |  | ≥ 50% | 
CCC1(c2ccc3ccccc3n2)CN(C)C(=O)C(=C(Nc2ccc(F)nc2)SC)C1=O (centres unmarked) [9-38] |  |  | ≥ 50% | 
